In patent US8163684B2, “Antimicrobials having polyquaternary ammoniums and alcohol-bearing amidoamines and methods for their use” (Abbott Medical Optics Inc., priority 2008, dated 2012):

How the values were obtained:
[1] = test system: C. albicans; test: log drop in 6 hours in lens case with PureVision lens, C. albicans; assay type: cell-based, Candida albicans
Excerpt: (§1) Approximately three (3) mL of each solution was introduced into a lens case containing a PureVision® soft contact lens. Each contact lens was maintained in this solution at room temperature for about six (6) hours. The amidoamine used was ricinoleamidopropyl dimethylamine (RAPD), an amidoamine with an alcohol group. Table 1 below provides the ingredients of the contact lens care solutions tested as well as the activity of the various solutions against Candida and Fusarium after six hours.
(§2) To test the biocidal efficacy of a solution comprising the synergistic combination of a polyquaternary ammonium compound and an amidoamine having an alcohol group, four (4) solutions were prepared by blending together the components provided in Table 4. Approximately three (3) mL of three of the solutions was placed into a test tube with A. polyphaga. When utilized, the amidoamine was RAPD and the polyquaternary ammonium compound was polyquaternium-1. Table 4 below provides the ingredients of the contact lens care solutions tested as well as the activity of the solutions against Acanthamoeba polyphaga after six hours.

[2] = test system: F. solani; test: log drop in 6 hours in lens case with PureVision lens, F. solani; assay type: cell-based; conditions: for log drop in 6 hours in lens case with PureVision lens, F. solani: sole antimicrobial, Table 1 solution, room temperature
Excerpt: as §1

[3] = test system: S. marcescens; test: log drop at contact time of 6 hours in test tube without lenses, S. marcescens; assay type: cell-based
Method: To test the biocidal efficacy of other solutions comprising the synergistic combination of a polyquaternary ammonium compound and an amidoamine having an alcohol group, three (3) solutions were prepared by blending together the components provided in Table 2. Approximately three (3) mL was placed into a test tube with S. marcescens. When utilized, the amidoamine was RAPD and the polyquaternary ammonium compound was polyquaternium-1. Table 2 below provides the ingredients of the contact lens care solutions tested as well as the activity of the solutions against S. marcescens after six hours. Further testing was performed to test the biocidal efficacy of other solutions comprising the synergistic combination of a polyquaternary ammonium compound and an amidoamine having an alcohol group. Approximately three (3) mL was placed into a test tube with S. marcescens. When utilized, the amidoamine was RAPD and the polyquaternary ammonium compound was polyquaternium-1. Table 3 below provides the ingredients of the contact lens care solutions tested as well as the activity of the solutions against S. marcescens after six hours.

[4] = test system: S. marcescens; test: log drop at contact time of 6 hours in lens case with PureVision lens, S. marcescens; assay type: cell-based; conditions: Table 2 solution
Method: To test the biocidal efficacy of other solutions comprising the synergistic combination of a polyquaternary ammonium compound and an amidoamine having an alcohol group, three (3) solutions were prepared by blending together the components provided in Table 2. […] When utilized, the amidoamine was RAPD and the polyquaternary ammonium compound was polyquaternium-1. Table 2 below provides the ingredients of the contact lens care solutions tested as well as the activity of the solutions against S. marcescens after six hours.

[5] = test system: Acanthamoeba polyphaga; test: log drop in 6 hours in test tube, Acanthamoeba polyphaga; assay type: cell-based
Method: as §2, with “hours. To test the biocidal efficacy of other solutions comprising the synergistic combination of a polyquaternary ammonium compound and an amidoamine having an alcohol group, three (3) solutions were prepared by blending together the components provided in Table 5. Approximately three (3) mL of two of the solutions was placed into a test tube with A. polyphaga. When utilized, the amidoamine was RAPD and the polyquaternary ammonium compound was polyquaternium-1. Table 5 below provides the ingredients of the contact lens care solutions tested as well as the activity of the solutions against A. polyphaga after six hours.” for “hours.”

[6] = test system: trophzoite and cyst-type Acanthamoeba; conditions: stated as known; cited from earlier work
[7] = test system: Fusarium; conditions: stated as known; cited from earlier work
[8] = RAPD 0.0005 % w/w, no CPC, no PQ-1, Table 4 solution
[9] = RAPD as the sole antimicrobial agent, Table 1 solutions

CCCCCC[C@@H](O)C/C=C\CCCCCCCC(=O)NCCCN(C)C [RAPD, ricinoleamidopropyl dimethylamine]
log drop in 6 hours in lens case with PureVision lens, C. albicans ([1]; RAPD 0.0002 % w/w, sole antimicrobial, Table 1 solution, room temperature): 0.26 log | log drop in 6 hours in lens case with PureVision lens, C. albicans [1, 8]: <0.28 log | log drop in 6 hours in lens case with PureVision lens, C. albicans ([1]; RAPD 0.0005 % w/w, sole antimicrobial, Table 1 solution, room temperature): 0.33 log | log drop in 6 hours in lens case with PureVision lens, C. albicans ([1]; RAPD 0.001 % w/w, sole antimicrobial, Table 1 solution, room temperature): 0.21 log | biocidal activity against Candida (in words) [1, 9]: very low biocidal activity | log drop in 6 hours in lens case with PureVision lens, F. solani ([2]; RAPD 0.0002 % w/w): 0.48 log | log drop in 6 hours in lens case with PureVision lens, F. solani ([2]; RAPD 0.0005 % w/w): 0.37 log | log drop in 6 hours in lens case with PureVision lens, F. solani ([2]; RAPD 0.001 % w/w): 0.35 log | biocidal activity against Fusarium (in words) [2, 9]: very low biocidal activity | log drop at contact time of 6 hours in test tube without lenses, S. marcescens ([3]; RAPD 0.0005 % w/w, no PQ-1, Table 3 solution): 0.44 log | log drop at contact time of 6 hours in test tube without lenses, S. marcescens ([3]; RAPD 0.001 % w/w, no PQ-1, Table 3 solution): 1.51 log | log drop at contact time of 6 hours in test tube without lenses, S. marcescens ([3]; RAPD 0.002 % w/w, no PQ-1, Table 2 solution): 1.77 log | log drop at contact time of 6 hours in lens case with PureVision lens, S. marcescens ([4]; RAPD 0.002 % w/w, no PQ-1): 0.91 log | log drop in 6 hours in test tube, Acanthamoeba polyphaga [5, 8]: 0.18 log | log drop in 6 hours in test tube, A. polyphaga ([5]; RAPD 0.002 % w/w, no PQ-1, no CPC, Table 5 solution): 1.90 log

CCCCC(CC)CNC(=N)NC(=N)NCCCCCCNC(=N)NC(=N)NCC(CC)CCCC (stereo not shown) [alexidine]
biocidal activity against trophzoite and cyst-type Acanthamoeba (in words) [6]: very biocidal | biocidal activity against Fusarium (in words) [7]: not very biocidal

poly[(dimethyliminio)-2-butene-1,4-diylchloride (1:1)], a-[4-[tris(2-hydroxyethyl)ammonio]-2-buten-1-yl]-w-[tris(2-hydroxyethyl)ammonio]-chloride [PQ-1]
log drop at contact time of 6 hours in test tube without lenses, S. marcescens ([3]; PQ-1 0.001 % w/w, no RAPD, citrate/borate solution of Tables 2 and 3): 1.53 log | log drop at contact time of 6 hours in lens case with PureVision lens, S. marcescens ([4]; PQ-1 0.001 % w/w, no RAPD): 1.07 log
